ChEMBL document CHEMBL1817578, “2-({6-[(3R)-3-amino-3-methylpiperidine-1-yl]-1,3-dimethyl-2,4-dioxo-1,2,3,4-tetrahydro-5H-pyrrolo[3,2-d]pyrimidine-5-yl}methyl)-4-fluorobenzonitrile (DSR-12727): a potent, orally active dipeptidyl peptidase IV inhibitor without mechanism-based inactivation of CYP3A” (Bioorg Med Chem, 2011)

Assays:
[1] = Clearance in dog at 1 mg/kg, iv; format: ADME, organism-based, Canis lupus familiaris; set-up: dose 1 mg/kg, route intravenous; details: in vivo
[2] = biological target: T1, Muscarinic acetylcholine receptor M2 (Homo sapiens, UniProt P08172); assay: Binding affinity to muscarinic receptor 2
T1 sequence (P08172 whole entry): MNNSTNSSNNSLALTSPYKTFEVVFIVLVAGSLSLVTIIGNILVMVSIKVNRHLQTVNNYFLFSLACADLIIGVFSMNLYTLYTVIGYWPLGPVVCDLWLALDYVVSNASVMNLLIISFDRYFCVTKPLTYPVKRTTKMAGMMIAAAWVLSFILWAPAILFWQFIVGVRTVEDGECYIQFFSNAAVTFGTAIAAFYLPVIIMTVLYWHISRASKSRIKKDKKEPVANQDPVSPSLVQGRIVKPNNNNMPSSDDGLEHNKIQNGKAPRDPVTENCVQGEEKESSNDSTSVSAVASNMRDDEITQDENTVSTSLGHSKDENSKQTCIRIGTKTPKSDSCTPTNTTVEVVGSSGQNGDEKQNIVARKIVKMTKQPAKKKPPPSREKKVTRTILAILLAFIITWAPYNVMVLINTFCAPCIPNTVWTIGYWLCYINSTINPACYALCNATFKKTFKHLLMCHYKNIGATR

[3] = Plasma protein binding in human; format: ADME, cell-free; details: read-out: PPB (converted)

clearance [1]: 29 mL/min/kg
IC50 [2]: > 10 µM
fraction unbound [3]: 0.27
Structure (SMILES): Cn1c(=O)c2c(cc(N3CCC[C@@](C)(N)C3)n2Cc2cc(F)ccc2C#N)n(C)c1=O
